Converted amounts (≈) assume the structure as drawn. The source made the active and inactive calls. The calls are words filed in the database; no cut-off is given here.
Legend:
[1] = Efflux ratio of Apparent permeability across basolateral to apical side over apical to basolateral side in human Caco-2 cells
[2] = Permeability coefficient across apical to basolateral side in human Caco-2 cells by HPLC-UV analysis
[3] = Stability in rat plasma assessed as compound remaining at 6.25 to 25 mg/L after 12 hrs by HPLC analysis; type: ADME, cell-free; conditions: at 6.25 to 25 µg/mL, dose 6.25-25 mg/L, read-out: Stability
[4] = Dissociation constant, pKa of compound by UV-visible spectrometric method; type: physicochemical
[5] = Water solubility of the compound by HPLC analysis
HUVEC [6] = experiment: Angiogenesis activity in human HUVEC cells assessed as suppression of cell migration using conditioned medium of mouse C2C12 cells treated at 30 uM under hyperglycemic condition for 12 hrs followed by hypoxia for 24 hrs by crystal violet dye based transwell assay; type: functional; conditions: time 36.0 hrs
HUVEC [7] = experiment: Induction proliferation of human HUVEC cells assessed as increase in number of EdU-positive cells using conditioned medium of mouse C2C12 cells treated at 30 uM under hyperglycemic condition for 12 hrs followed by hypoxia for 24 hrs by EdU-incorporation assay; type: functional; conditions: time 36.0 hrs
[8] = Octanol/Water partition coefficient, log P of the compound by HPLC-UV analysis
MOVAS-1 [9] = experiment: Angiogenesis activity in mouse MOVAS-1 assessed as increase of cell migration using conditioned medium of mouse C2C12 cells with silenced HIF-1alpha treated at 30 uM under hyperglycemic condition for 12 hrs followed by hypoxia for 24 hrs by crystal violet dye based transwell assay; type: functional; conditions: time 36.0 hrs
C2C12 [10] = experiment: Induction of F-actin polymerization in mouse C2C12 cells at 30 uM pretreated with compound for 12 hr followed by hypoxic condition for 24 hrs by phalloidin staining based confocal microscopy; type: functional, cell-based; conditions: time 36.0 hrs
Mus musculus [11] = experiment: Angiogenesis activity in diabetic HLI C57BL/6 mouse model assessed as PDGF-BB protein expression at 100 mg/kg, im administered for 21 days followed by surgery by Western blot analysis; type: functional, organism-based; conditions: time 21.0 day
C2C12 [12] = experiment: Reversal of hyperglycemia-induced PDGF-BB protein level reduction in mouse C2C12 cells measured at 30 uM by Western blot analysis; type: functional, cell-based
MOVAS-1 [13] = experiment: Induction proliferation of mouse MOVAS-1 cells assessed as increase in number of EdU-positive cells using conditioned medium of mouse C2C12 cells treated at 30 uM under hyperglycemic condition for 12 hrs followed by hypoxia for 24 hrs by EdU-incorporation assay; type: functional; conditions: time 36.0 hrs
HUVEC [14] = experiment: Angiogenesis activity in human HUVEC cells assessed as increase of cell migration using conditioned medium of mouse C2C12 cells with silenced HIF-1alpha treated at 30 uM under hyperglycemic condition for 12 hrs followed by hypoxia for 24 hrs by crystal violet dye based transwell assay; type: functional; conditions: time 36.0 hrs
MOVAS-1 [15] = experiment: Angiogenesis activity in mouse MOVAS-1 cells assessed as suppression of cell migration using conditioned medium of mouse C2C12 cells treated at 30 uM under hyperglycemic condition for 12 hrs followed by hypoxia for 24 hrs by crystal violet dye based transwell assay; type: functional; conditions: time 36.0 hrs
Mus musculus [16] = experiment: Angiogenesis activity in diabetic HLI C57BL/6 mouse model assessed as HIF-1alpha protein expression at 100 mg/kg, im administered for 21 days followed by surgery by Western blot analysis; type: functional, organism-based; conditions: time 21.0 day
MOVAS-1 [17] = experiment: Induction proliferation of mouse MOVAS-1 assessed as increase in number of EdU-positive cells using conditioned medium of mouse C2C12 cells with silenced HIF-1alpha treated at 30 uM under hyperglycemic condition for 12 hrs followed by hypoxia for 24 hrs by EdU-incorporation assay; type: functional, cell-based; conditions: time 36.0 hrs
Mus musculus [18] = experiment: Antidiabetic activity in diabetic HLI C57BL/6 mouse model assessed as effect on blood glucose level at 15 mg/kg administered intramuscular; type: functional, organism-based
[19] = Protein binding in human plasma by balanced dialysis method; type: ADME, cell-free; conditions: read-out: PPB (converted)
[20] = Permeability coefficient across basolateral to apical side in human Caco-2 cells by HPLC-UV analysis
C2C12 [21] = experiment: Reversal of hyperglycemia-induced PDGF-BB protein level reduction in mouse C2C12 cells measured at 30 uM by ELISA; type: functional, cell-based
C2C12 [22] = experiment: Induction of cell migration in mouse C2C12 cells at 30 uM under hyperglycemic condition incubated for 24 hrs by crystal violet dye based transwell chamber assay; type: functional
Mus musculus [23] = experiment: Angiogenesis activity in diabetic HLI C57BL/6 mouse model assessed as VEGF-A protein expression at 100 mg/kg, im administered for 21 days followed by surgery by Western blot analysis; type: functional, organism-based; conditions: time 21.0 day
MOVAS-1 [24] = experiment: Angiogenic activity in mouse MOVAS-1 cells assessed as suppression of F-actin polymerization at 30 uM using conditioned medium of mouse C2C12 cells treated at 30 uM under hyperglycemic condition for 12 hrs followed by hypoxia for 12 hrs by phalloidin staining based confocal microscopy; type: functional, cell-based; conditions: time 24.0 hrs
HUVEC [25] = experiment: Angiogenic activity in human HUVEC cells assessed as suppression of F-actin polymerization at 30 uM using conditioned medium of mouse C2C12 cells treated at 30 uM under hyperglycemic condition for 12 hrs followed by hypoxia for 12 hrs by phalloidin staining based confocal microscopy; type: functional, cell-based; conditions: time 24.0 hrs
Mus musculus [26] = experiment: Antidiabetic activity in diabetic HLI C57BL/6 mouse model assessed as increase in blood perfusion recovery at 100 mg/kg administered intramuscularly; type: functional, organism-based
C2C12 [27] = experiment: Reversal of hyperglycemia-induced VEGF-A protein level reduction in mouse C2C12 cells measured at 30 uM by ELISA; type: functional, cell-based
[28] = Metabolic stability in rat leg muscle homogenates assessed as compound remaining after 30 min by HPLC analysis; type: ADME, tissue-based, muscle of leg; conditions: read-out: Stability
C2C12 [29] = experiment: Reversal of hyperglycemia-induced VEGF-A protein level reduction in mouse C2C12 cells measured at 30 uM by Western blot analysis; type: functional, cell-based
[30] = Microsomal stability in rat liver microsomes assessed as compound remaining after 30 min by HPLC analysis; type: ADME, Microsome; conditions: read-out: Stability
Mus musculus [31] = experiment: Antidiabetic activity in diabetic HLI C57BL/6 mouse model assessed as morphological changes at 100 mg/kg administered intramuscularly; type: functional, organism-based
HUVEC [32] = experiment: Induction proliferation of human HUVEC cells assessed as increase in number of EdU-positive cells using conditioned medium of mouse C2C12 cells with silenced HIF-1alpha treated at 30 uM under hyperglycemic condition for 12 hrs followed by hypoxia for 24 hrs by EdU-incorporation assay; type: functional, cell-based; conditions: time 36.0 hrs

Compound `OC[C@H]1O[C@@H](OCCc2ccc(O)cc2)[C@H](O)[C@@H](O)[C@@H]1O` [SALIDROSIDE] has an efflux ratio [1] of 1.09, a Papp A→B [2] of 2.71 ×10⁻⁶ cm/s and a remaining at 12 h [3] of 99.4%. The pKa [4] was 10.1, the solubility [5] was 472 mg/mL (≈ 1570 mM) and the Activity (HUVEC [6]) was “inactive”. For the same compound, the Activity (HUVEC [7]) was “Active”, the logP [8] was -2.42 and the Activity (MOVAS-1 [9]) was “Active”. For the same compound, the Activity (C2C12 [10]) was “Active”, the Activity (Mus musculus [11]) was “Active” and the Activity (C2C12 [12]) was “Active”. For the same compound, the Activity (MOVAS-1 [13]) was “Active”, the Activity (HUVEC [14]) was “Active” and the Activity (MOVAS-1 [15]) was “inactive”. The Activity (Mus musculus [16]) was “Active”, the Activity (MOVAS-1 [17]) was “Active” and the Activity (Mus musculus [18]) was “Active”. For the same compound, the fraction unbound [19] was 0.873, the Papp B→A [20] was 2.95 ×10⁻⁶ cm/s and the Activity (C2C12 [21]) was “Active”. The Activity (C2C12 [22]) was “Active”, the Activity (Mus musculus [23]) was “Active” and the Activity (MOVAS-1 [24]) was “inactive”. For the same compound, the Activity (HUVEC [25]) was “inactive”, the Activity (Mus musculus [26]) was “Active” and the Activity (C2C12 [27]) was “Active”. For the same compound, the remaining at 0.5 h [28] was 35.8%, the Activity (C2C12 [29]) was “Active” and the remaining at 0.5 h [30] was 43.3%. For the same compound, the Activity (Mus musculus [31]) was “Active” and the Activity (HUVEC [32]) was “Active”.

From ChEMBL document CHEMBL5038635, “Discovery of Salidroside-Derivated Glycoside Analogues as Novel Angiogenesis Agents to Treat Diabetic Hind Limb Ischemia” (J Med Chem, 2022)
